# Measured values: article PMC10414762, “Gene amplifications cause high-level resistance against albicidin in gram-negative bacteria” (PLOS Biology, 2023)
# Target: T1, STM3175 (YgiV) (Salmonella enterica, UniProt Q8ZM00)
# T1 construct: full-length STM3175 (288 aa)
# Test: tryptophan fluorescence quenching titration
# Assay type: binding
# Source text: tryptophan fluorescence quenching titration on STM3175 (YgiV) | Fluorescence quenching of STM3175 plotted as a function of increasing azahistidine albicidin concentration.
# T1 sequence (Q8ZM00 whole entry): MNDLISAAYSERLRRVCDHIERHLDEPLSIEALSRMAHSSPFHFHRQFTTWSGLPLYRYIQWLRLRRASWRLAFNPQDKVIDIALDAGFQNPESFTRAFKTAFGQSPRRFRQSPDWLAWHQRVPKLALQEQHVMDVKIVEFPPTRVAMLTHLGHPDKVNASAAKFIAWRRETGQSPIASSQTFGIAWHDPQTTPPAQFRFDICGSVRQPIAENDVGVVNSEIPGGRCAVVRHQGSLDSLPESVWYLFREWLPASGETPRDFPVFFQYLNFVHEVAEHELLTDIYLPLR
smiles,measurement,value
COc1c(NC(=O)c2ccc(NC(=O)c3ccc(NC(=O)[C@H](Cc4c[nH]nn4)NC(=O)c4ccc(NC(=O)/C(C)=C/c5ccc(O)cc5)cc4)cc3)c(OC)c2O)ccc(C(=O)O)c1O [azahistidine albicidin],Kd,170 ± 10 nM
